Experimental data from article PMC6332596 (Journal of Hematology & Oncology, 2019).
Like-named read-outs stand apart in the source and are kept apart here.

What was measured:
VEGFR3 = tested on: VEGFR3; set-up: method as in PMID 28004478; details: cited from earlier work
Aurora B = tested on: Aurora B; set-up: method as in PMID 28004478; details: cited from earlier work
[1] = Grade 1, worst grade per patient in all cycles, N = 18
[2] = Grade 2, worst grade per patient in all cycles, N = 18
[3] = Grade 3, worst grade per patient in all cycles, N = 18
[4] = Grade 4, worst grade per patient in all cycles, N = 18
[5] = Grade 5, worst grade per patient in all cycles, N = 18

Structure (SMILES): COc1ccc2c(Oc3ccc4c(C(=O)Nc5ccccc5N)cccc4c3)ccnc2c1 [chiauranib]
- IC50 (VEGFR3): single-digit nanomolar range
- IC50 (Aurora B): single-digit nanomolar range
- patients with DLT (grade 3 hypertension) (65 mg/day cohort (n = 4), cycle 1): two
- serious adverse events (SAE) reported (20-mg dose level, death from pulmonary infection, assessed unlikely related): one
- Treatment-related adverse event: ALT increased [1]: 2 (11.1) n (%)
- Treatment-related adverse event: AST increased [1]: 3 (16.7) n (%)
- Treatment-related adverse event: Abdominal pain [1]: 2 (11.1) n (%)
- Treatment-related adverse event: Amylase increased [1]: 3 (16.7) n (%)
- Treatment-related adverse event: Blood urea increased [1]: 2 (11.1) n (%)
- Treatment-related adverse event: Conjugated bilirubin increased [1]: 5 (27.8) n (%)
- Treatment-related adverse event: Decreased appetite [1]: 0 n (%)
- Treatment-related adverse event: Diarrhea [1]: 2 (11.1) n (%)
- Treatment-related adverse event: Dysphonia [1]: 2 (11.1) n (%)
- Treatment-related adverse event: Fatigue [1]: 7 (38.9) n (%)
- Treatment-related adverse event: Hematuria [1]: 7 (38.9) n (%)
- Treatment-related adverse event: Hyperbilirubinemia [1]: 2 (11.1) n (%)
- Treatment-related adverse event: Hypertension [1]: 3 (16.7) n (%)
- Treatment-related adverse event: Hypertriglyceridemia [1]: 5 (27.8) n (%)
- Treatment-related adverse event: Hypothyroidism [1]: 7 (38.9) n (%)
- Treatment-related adverse event: Leucopenia [1]: 2 (11.1) n (%)
- Treatment-related adverse event: Mouth ulceration [1]: 1 (5.6) n (%)
- Treatment-related adverse event: Nausea [1]: 4 (22.2) n (%)
- Treatment-related adverse event: Neutropenia [1]: 2 (11.1) n (%)
- Treatment-related adverse event: Palmar-plantar erythrodysesthesia syndrome [1]: 1 (5.6) n (%)
- Treatment-related adverse event: Proteinuria [1]: 8 (44.4) n (%)
- Treatment-related adverse event: Rash [1]: 1 (5.6) n (%)
- Treatment-related adverse event: Thrombocytopenia [1]: 2 (11.1) n (%)
- Treatment-related adverse event: Unconjugated bilirubin increased [1]: 2 (11.1) n (%)
- Treatment-related adverse event: Vaginal hemorrhage [1]: 2 (11.1) n (%)
- Treatment-related adverse event: ALT increased [2]: 0 n (%)
- Treatment-related adverse event: AST increased [2]: 0 n (%)
- Treatment-related adverse event: Abdominal pain [2]: 0 n (%)
- Treatment-related adverse event: Amylase increased [2]: 1 (5.6) n (%)
- Treatment-related adverse event: Blood urea increased [2]: 0 n (%)
- Treatment-related adverse event: Conjugated bilirubin increased [2]: 0 n (%)
- Treatment-related adverse event: Decreased appetite [2]: 2 (11.1) n (%)
- Treatment-related adverse event: Diarrhea [2]: 1 (5.6) n (%)
- Treatment-related adverse event: Dysphonia [2]: 0 n (%)
- Treatment-related adverse event: Fatigue [2]: 4 (22.2) n (%)
- Treatment-related adverse event: Hematuria [2]: 0 n (%)
- Treatment-related adverse event: Hyperbilirubinemia [2]: 0 n (%)
- Treatment-related adverse event: Hypertension [2]: 1 (5.6) n (%)
- Treatment-related adverse event: Hypertriglyceridemia [2]: 1 (5.6) n (%)
- Treatment-related adverse event: Hypothyroidism [2]: 0 n (%)
- Treatment-related adverse event: Leucopenia [2]: 1 (5.6) n (%)
- Treatment-related adverse event: Mouth ulceration [2]: 1 (5.6) n (%)
- Treatment-related adverse event: Nausea [2]: 0 n (%)
- Treatment-related adverse event: Neutropenia [2]: 0 n (%)
- Treatment-related adverse event: Palmar-plantar erythrodysesthesia syndrome [2]: 1 (5.6) n (%)
- Treatment-related adverse event: Proteinuria [2]: 0 n (%)
- Treatment-related adverse event: Rash [2]: 1 (5.6) n (%)
- Treatment-related adverse event: Thrombocytopenia [2]: 0 n (%)
- Treatment-related adverse event: Unconjugated bilirubin increased [2]: 0 n (%)
- Treatment-related adverse event: Vaginal hemorrhage [2]: 0 n (%)
- Treatment-related adverse event: ALT increased [3]: 0 n (%)
- Treatment-related adverse event: AST increased [3]: 0 n (%)
- Treatment-related adverse event: Abdominal pain [3]: 0 n (%)
- Treatment-related adverse event: Amylase increased [3]: 0 n (%)
- Treatment-related adverse event: Blood urea increased [3]: 0 n (%)
- Treatment-related adverse event: Conjugated bilirubin increased [3]: 0 n (%)
- Treatment-related adverse event: Decreased appetite [3]: 0 n (%)
- Treatment-related adverse event: Diarrhea [3]: 0 n (%)
- Treatment-related adverse event: Dysphonia [3]: 0 n (%)
- Treatment-related adverse event: Fatigue [3]: 0 n (%)
- Treatment-related adverse event: Hematuria [3]: 0 n (%)
- Treatment-related adverse event: Hyperbilirubinemia [3]: 0 n (%)
- Treatment-related adverse event: Hypertension [3]: 2 (11.1) n (%)
- Treatment-related adverse event: Hypertriglyceridemia [3]: 0 n (%)
- Treatment-related adverse event: Hypothyroidism [3]: 0 n (%)
- Treatment-related adverse event: Leucopenia [3]: 0 n (%)
- Treatment-related adverse event: Mouth ulceration [3]: 0 n (%)
- Treatment-related adverse event: Nausea [3]: 0 n (%)
- Treatment-related adverse event: Neutropenia [3]: 2 (11.1) n (%)
- Treatment-related adverse event: Palmar-plantar erythrodysesthesia syndrome [3]: 0 n (%)
- Treatment-related adverse event: Proteinuria [3]: 0 n (%)
- Treatment-related adverse event: Rash [3]: 0 n (%)
- Treatment-related adverse event: Thrombocytopenia [3]: 0 n (%)
- Treatment-related adverse event: Unconjugated bilirubin increased [3]: 0 n (%)
- Treatment-related adverse event: Vaginal hemorrhage [3]: 0 n (%)
- Treatment-related adverse event: ALT increased [4]: 0 n (%)
- Treatment-related adverse event: AST increased [4]: 0 n (%)
- Treatment-related adverse event: Abdominal pain [4]: 0 n (%)
- Treatment-related adverse event: Amylase increased [4]: 0 n (%)
- Treatment-related adverse event: Blood urea increased [4]: 0 n (%)
- Treatment-related adverse event: Conjugated bilirubin increased [4]: 0 n (%)
- Treatment-related adverse event: Decreased appetite [4]: 0 n (%)
- Treatment-related adverse event: Diarrhea [4]: 0 n (%)
- Treatment-related adverse event: Dysphonia [4]: 0 n (%)
- Treatment-related adverse event: Fatigue [4]: 0 n (%)
- Treatment-related adverse event: Hematuria [4]: 0 n (%)
- Treatment-related adverse event: Hyperbilirubinemia [4]: 0 n (%)
- Treatment-related adverse event: Hypertension [4]: 0 n (%)
- Treatment-related adverse event: Hypertriglyceridemia [4]: 0 n (%)
- Treatment-related adverse event: Hypothyroidism [4]: 0 n (%)
- Treatment-related adverse event: Leucopenia [4]: 0 n (%)
- Treatment-related adverse event: Mouth ulceration [4]: 0 n (%)
- Treatment-related adverse event: Nausea [4]: 0 n (%)
- Treatment-related adverse event: Neutropenia [4]: 0 n (%)
- Treatment-related adverse event: Palmar-plantar erythrodysesthesia syndrome [4]: 0 n (%)
- Treatment-related adverse event: Proteinuria [4]: 0 n (%)
- Treatment-related adverse event: Rash [4]: 0 n (%)
- Treatment-related adverse event: Thrombocytopenia [4]: 0 n (%)
- Treatment-related adverse event: Unconjugated bilirubin increased [4]: 0 n (%)
- Treatment-related adverse event: Vaginal hemorrhage [4]: 0 n (%)
- Treatment-related adverse event: ALT increased [5]: 0 n (%)
- Treatment-related adverse event: AST increased [5]: 0 n (%)
- Treatment-related adverse event: Abdominal pain [5]: 0 n (%)
- Treatment-related adverse event: Amylase increased [5]: 0 n (%)
- Treatment-related adverse event: Blood urea increased [5]: 0 n (%)
- Treatment-related adverse event: Conjugated bilirubin increased [5]: 0 n (%)
- Treatment-related adverse event: Decreased appetite [5]: 0 n (%)
- Treatment-related adverse event: Diarrhea [5]: 0 n (%)
- Treatment-related adverse event: Dysphonia [5]: 0 n (%)
- Treatment-related adverse event: Fatigue [5]: 0 n (%)
- Treatment-related adverse event: Hematuria [5]: 0 n (%)
- Treatment-related adverse event: Hyperbilirubinemia [5]: 0 n (%)
- Treatment-related adverse event: Hypertension [5]: 0 n (%)
- Treatment-related adverse event: Hypertriglyceridemia [5]: 0 n (%)
- Treatment-related adverse event: Hypothyroidism [5]: 0 n (%)
- Treatment-related adverse event: Leucopenia [5]: 0 n (%)
- Treatment-related adverse event: Mouth ulceration [5]: 0 n (%)
- Treatment-related adverse event: Nausea [5]: 0 n (%)
- Treatment-related adverse event: Neutropenia [5]: 0 n (%)
- Treatment-related adverse event: Palmar-plantar erythrodysesthesia syndrome [5]: 0 n (%)
- Treatment-related adverse event: Proteinuria [5]: 0 n (%)
- Treatment-related adverse event: Rash [5]: 0 n (%)
- Treatment-related adverse event: Thrombocytopenia [5]: 0 n (%)
- Treatment-related adverse event: Unconjugated bilirubin increased [5]: 0 n (%)
- Treatment-related adverse event: Vaginal hemorrhage [5]: 0 n (%)
- treatment-related AE exceeding grade 3 (N = 18): No treatment-related AE exceeded grade 3 was observed
- treatment-related deaths (N = 18): No treatment-related deaths occurred
- treatment-related fatigue, irrespective of grade (N = 18): 61.1%
- treatment-related grade 3 hyperglycemia (N = 18): one
- treatment-related grade 3 hypertension (N = 18): two
- treatment-related grade 3 neutropenia (N = 18): two
- treatment-related hematuria, irrespective of grade (N = 18): 38.9%
- treatment-related hypertension, irrespective of grade (N = 18): 33.3%
- treatment-related hypertriglyceridemia, irrespective of grade (N = 18): 33.3%
- treatment-related hypothyroidism, irrespective of grade (N = 18): 38.9%
- treatment-related proteinuria, irrespective of grade (N = 18): 44.4%
- patients with at least one AE (N = 18, all dose levels): 18 patients
- patients with at least one treatment-related AE (N = 18, all dose levels): 94.4%
- Treatment-related adverse event: ALT increased (Total, all cycles, N = 18): 2 (11.1) n (%)
- Treatment-related adverse event: AST increased (Total, all cycles, N = 18): 3 (16.7) n (%)
- Treatment-related adverse event: Abdominal pain (Total, all cycles, N = 18): 2 (11.1) n (%)
- Treatment-related adverse event: Amylase increased (Total, all cycles, N = 18): 4 (22.2) n (%)
- Treatment-related adverse event: Blood urea increased (Total, all cycles, N = 18): 2 (11.1) n (%)
- Treatment-related adverse event: Conjugated bilirubin increased (Total, all cycles, N = 18): 5 (27.8) n (%)
- Treatment-related adverse event: Decreased appetite (Total, all cycles, N = 18): 2 (11.1) n (%)
- Treatment-related adverse event: Diarrhea (Total, all cycles, N = 18): 3 (16.7) n (%)
- Treatment-related adverse event: Dysphonia (Total, all cycles, N = 18): 2 (11.1) n (%)
- Treatment-related adverse event: Fatigue (Total, all cycles, N = 18): 11 (61.1) n (%)
- Treatment-related adverse event: Hematuria (Total, all cycles, N = 18): 7 (38.9) n (%)
- Treatment-related adverse event: Hyperbilirubinemia (Total, all cycles, N = 18): 2 (11.1) n (%)
- Treatment-related adverse event: Hypertension (Total, all cycles, N = 18): 6 (33.3) n (%)
- Treatment-related adverse event: Hypertriglyceridemia (Total, all cycles, N = 18): 6 (33.3) n (%)
- Treatment-related adverse event: Hypothyroidism (Total, all cycles, N = 18): 7 (38.9) n (%)
- Treatment-related adverse event: Leucopenia (Total, all cycles, N = 18): 3 (16.7) n (%)
- Treatment-related adverse event: Mouth ulceration (Total, all cycles, N = 18): 2 (11.1) n (%)
- Treatment-related adverse event: Nausea (Total, all cycles, N = 18): 4 (22.2) n (%)
- Treatment-related adverse event: Neutropenia (Total, all cycles, N = 18): 4 (22.2) n (%)
- Treatment-related adverse event: Palmar-plantar erythrodysesthesia syndrome (Total, all cycles, N = 18): 2 (11.1) n (%)
- Treatment-related adverse event: Proteinuria (Total, all cycles, N = 18): 8 (44.4) n (%)
- Treatment-related adverse event: Rash (Total, all cycles, N = 18): 2 (11.1) n (%)
- Treatment-related adverse event: Thrombocytopenia (Total, all cycles, N = 18): 2 (11.1) n (%)
- Treatment-related adverse event: Unconjugated bilirubin increased (Total, all cycles, N = 18): 2 (11.1) n (%)
- Treatment-related adverse event: Vaginal hemorrhage (Total, all cycles, N = 18): 2 (11.1) n (%)
- MTD (administered orally once daily): 50 mg
- recommended phase II dose (RP2D) (administered orally once daily, monotherapy): 50 mg
- maximum tolerated dose (MTD) (patients, oral once daily, 28-day cycles): 50 mg/day
